Assay results: BindingDB's records for patent US10544113 (National Health Research Institute; Regents of the …, 2020)
Values belong to the compound of their own block, whether it stands above or below them.

Target: Mu-type opioid receptor (Homo sapiens, UniProt P35372)
Assay: FLIPR Calcium Assay
Description: One day before the assay, CORNING black with clear flat bottom 96-well assay plates were coated with a 0.1 mg/mL Poly-L-Lysine solution. CHO-K1/MOR/Gα15 cells were suspended in the F12 medium and plated at a density of 8×10^4 cells/well in 200 μL medium. Cells were incubated in a humidified atmosphere of 10% CO2 at 37° C. overnight so as to reach an 80-90% confluent cell monolayer before assay. At the day of assay, 150 μL medium/well was removed from plate. To each well, 50 μL FLIPR calcium assay reagent dissolved in 1× assay buffer (HBSS: KCl 5 mM, KH2PO4 0.3 mM, NaCl 138 mM, NaHCO3 4 mM, Na2HPO4 0.3 mM, d-glucose 5.6 mM, with additional 20 mM HEPES and 13 mM CaCl2, pH 7.4), with 2.5 mM probenecid was added and the plate was incubated at 37° C. for 1 h. Compounds and other reagents were dissolved in the assay buffer. Using a FlexStationIII (Molecular Devices Corp.), the [Ca2+]i fluorescence increases after robotic injections of compounds or other reagents were monitored every 1.52 s interval with excitation wavelength at 485 nm and with emission wavelength at 525 nm. The [Ca2+]i fluorescence was measured up to 90 s after agonist injection.

Sequence of Mu-type opioid receptor (P35372 whole entry): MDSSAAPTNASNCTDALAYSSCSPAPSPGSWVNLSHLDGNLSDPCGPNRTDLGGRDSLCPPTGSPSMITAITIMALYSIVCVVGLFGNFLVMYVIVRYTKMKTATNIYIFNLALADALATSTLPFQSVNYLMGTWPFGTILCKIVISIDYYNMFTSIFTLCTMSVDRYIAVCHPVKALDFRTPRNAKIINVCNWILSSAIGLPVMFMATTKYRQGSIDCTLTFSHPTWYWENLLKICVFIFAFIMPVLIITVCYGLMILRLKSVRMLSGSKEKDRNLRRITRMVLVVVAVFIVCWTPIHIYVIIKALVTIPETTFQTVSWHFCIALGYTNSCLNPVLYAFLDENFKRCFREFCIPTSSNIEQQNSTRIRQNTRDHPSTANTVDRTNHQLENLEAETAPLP

SMILES: COc1ccccc1N1C(=O)CSC1c1cccc(F)c1 (stereo not drawn) [US10544113, No. 1]
EC50: 12.4 µM

SMILES: Cc1cc(C(=O)NCCN2CCOCC2)ccc1N1C(=O)CSC1c1ccc(F)cc1 (stereo not drawn) [US10544113, No. 344]
EC50: 7 µM

SMILES: Cc1cc(C(=O)OCCCc2ccccc2)ccc1N1C(=O)CSC1c1ccc(F)cc1 (stereo not drawn) [US10544113, No. 253]
EC50: 11.2 µM

SMILES: COCCOCCOC(=O)c1ccc(N2C(=O)CSC2c2ccc(F)cc2)c(C)c1 (stereo not drawn) [US10544113, No. 280]
EC50: 7.1 µM

SMILES: COc1ccc(F)cc1N1C(=O)CSC1c1ccc(F)c(F)c1 (stereo not drawn) [US10544113, No. 4]
EC50: 3.3 µM

SMILES: Cc1cc(C(=O)OCCN2CCCC2)ccc1N1C(=O)CSC1c1ccc(F)cc1 (stereo not drawn) [US10544113, No. 294]
EC50: 2.9 µM

SMILES: COCCCNC(=O)c1ccc(N2C(=O)CSC2c2ccc(F)cc2)c(C)c1 (stereo not drawn) [US10544113, No. 343]
EC50: 3.7 µM

The remaining compounds from weak to strong by EC50, led by results:

EC50: 19 µM
SMILES: COc1ccccc1N1C(=O)CSC1c1ccc(F)cc1 (stereo not drawn) [US10544113, No. 2]

EC50: 8.3 µM
SMILES: COc1cc(N2C(=O)CSC2c2ccc(F)cc2)cc(OC)c1OC (stereo not drawn) [US10544113, No. 16]

EC50: 6.6 µM
SMILES: Cc1cc(C(=O)NCCc2ccccc2Cl)ccc1N1C(=O)CSC1c1ccc(F)cc1 (stereo not drawn) [US10544113, No. 384]

EC50: 5.2 µM
SMILES: COc1ccc(F)cc1N1C(=O)CSC1c1cccc(F)c1 (stereo not drawn) [US10544113, No. 5]

EC50: 3.9 µM
SMILES: COc1ccc(F)cc1N1C(=O)CSC1c1ccc(F)cc1 (stereo not drawn) [US10544113, No. 6]

EC50: 3.3 µM
SMILES: Cc1cccc(F)c1N1C(=O)CSC1c1ccc(F)cc1 (stereo not drawn) [US10544113, No. 108]
